Each block holds one compound with its values, some of them ahead of it.
Assays:
[1] = Inhibition of Escherichia coli thymidine phosphorylase expressed in Escherichia coli preincubated for 10 mins followed by thymidine substrate addition measured for 10 mins by spectrophotometric method
[2] = Non-competitive inhibition of Escherichia coli thymidine phosphorylase expressed in Escherichia coli preincubated for 10 mins followed by varying levels of thymidine substrate addition by Lineweaver-Burk plot analysis
Thymidine phosphorylase [3] = target: T1, Thymidine phosphorylase (Homo sapiens, UniProt P19971); test: Inhibition of human thymidine phosphorylase using thymidine as substrate preincubated for 30 mins followed substrate addition measured up to 30 mins
T1 sequence (P19971 whole entry): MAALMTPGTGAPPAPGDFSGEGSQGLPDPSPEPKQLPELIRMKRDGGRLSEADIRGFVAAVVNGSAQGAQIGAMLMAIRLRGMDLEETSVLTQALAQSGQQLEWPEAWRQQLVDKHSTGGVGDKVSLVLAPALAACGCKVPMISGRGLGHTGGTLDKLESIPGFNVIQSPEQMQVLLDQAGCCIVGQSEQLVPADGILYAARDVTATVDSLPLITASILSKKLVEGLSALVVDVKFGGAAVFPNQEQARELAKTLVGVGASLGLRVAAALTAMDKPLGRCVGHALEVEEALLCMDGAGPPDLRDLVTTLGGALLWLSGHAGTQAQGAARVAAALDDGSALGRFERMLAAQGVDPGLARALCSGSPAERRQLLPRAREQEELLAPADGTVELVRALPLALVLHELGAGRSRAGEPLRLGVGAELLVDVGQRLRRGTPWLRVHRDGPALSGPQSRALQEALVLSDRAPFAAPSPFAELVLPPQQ

Thymidine phosphorylase [4] = target: T2, Thymidine phosphorylase (Escherichia coli K-12, UniProt P07650); test: Inhibition of Escherichia coli K12 thymidine phosphorylase expressed in Escherichia coli preincubated for 10 mins followed by substrate addition measured up to 30 mins by spectrophotometric method
[5] = target: Thymidine phosphorylase (Escherichia coli K-12) (UniProt P07650); test: Potency index, ratio of 7-DX IC50 to compound IC50 for Escherichia coli K12 thymidine phosphorylase expressed in Escherichia coli
Thymidine phosphorylase [6] = target: T2, Thymidine phosphorylase; test: Inhibition of Escherichia coli K12 thymidine phosphorylase expressed in Escherichia coli using thymidine as substrate addition measured up to 20 mins by Uv-vis spectrophotometric method

T2 sequence (P07650 whole entry): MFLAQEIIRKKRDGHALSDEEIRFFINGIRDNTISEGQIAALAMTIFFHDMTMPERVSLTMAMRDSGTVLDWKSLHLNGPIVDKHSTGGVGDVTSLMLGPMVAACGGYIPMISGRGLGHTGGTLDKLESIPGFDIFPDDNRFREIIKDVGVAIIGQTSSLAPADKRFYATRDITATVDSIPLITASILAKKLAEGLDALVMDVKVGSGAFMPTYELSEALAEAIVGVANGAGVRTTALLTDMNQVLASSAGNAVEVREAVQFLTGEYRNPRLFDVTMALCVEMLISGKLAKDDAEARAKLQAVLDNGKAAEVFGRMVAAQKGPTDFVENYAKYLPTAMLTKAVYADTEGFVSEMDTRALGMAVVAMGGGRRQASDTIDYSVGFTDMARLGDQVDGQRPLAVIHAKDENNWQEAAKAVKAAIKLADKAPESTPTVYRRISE
Chain of Thymidine phosphorylase (Escherichia coli K-12) (P07650 whole entry, looked up): as the sequence (P07650 whole entry) above

Structure (SMILES): O=C(OCc1cc(O)ccc1O[C@@H]1O[C@H](CO)[C@@H](O)[C@@H](OC(=O)c2ccc(O)cc2)[C@H]1O)c1ccccc1
- IC50 (Thymidine phosphorylase [3]): 226 µM

Structure (SMILES): Oc1ccc(-c2nnc(S)o2)cc1
- IC50 (Thymidine phosphorylase [4]): 38.2 µM

Structure (SMILES): O=c1[nH]c(SCc2ccccc2)nc2nc(-c3ccccc3)nn12
- IC50 (Thymidine phosphorylase [6]): 111 µM

Continued, in another order:

- IC50 [1]: 42.9 µM
Structure (SMILES): O=c1[nH]c(-c2ccc(O)c(O)c2)nc2ccccc12
- Ki [2]: 52.3 µM

- IC50 (Thymidine phosphorylase [4]): 3.2 µM
- Ratio IC50 [5]: 12
Structure (SMILES): Oc1cc(O)c(/C=N/Nc2cnc3ccccc3n2)cc1O

From ChEMBL document CHEMBL3875181, “Recent discovery of non-nucleobase thymidine phosphorylase inhibitors targeting cancer” (Eur J Med Chem, 2016)
